Target: BCL2 (Homo sapiens (Human), UniProt P10415)
Test: Molecular level activity test of anti-apoptotic protein BCL2 (HTRF, binding to Bim peptide)
Conditions: HTRF, binding of BCL2 to Bim peptide; read-out: BCL2 nM (inhibitory activity, IC50)
In short: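 Disruption of the BCL2/Bim peptide interaction is detected by homogeneous time-resolved fluorescence, using anti-His and streptavidin-XL665 reagents against His-tagged protein and biotin-tagged peptide. Compound exposure lasts 1 h before reagent addition; plates then sit 4 h at room temperature.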

Sequence of BCL2 (P10415 whole entry): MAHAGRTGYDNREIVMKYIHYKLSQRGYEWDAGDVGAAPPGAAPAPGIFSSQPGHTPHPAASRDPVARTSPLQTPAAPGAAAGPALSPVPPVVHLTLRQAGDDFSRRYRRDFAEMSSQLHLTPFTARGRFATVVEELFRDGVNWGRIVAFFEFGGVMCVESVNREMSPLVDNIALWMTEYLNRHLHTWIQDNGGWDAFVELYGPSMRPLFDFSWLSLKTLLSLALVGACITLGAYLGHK

IC50, < 10 nM:
COc1ccc(CN2C[C@@H](c3ccccc3C(C)C)N(C3CC4(CCN(c5cc(Oc6cnc7[nH]ccc7c6)c(C(=O)NS(=O)(=O)c6ccc(NCC7(F)CCOCC7)c([N+](=O)[O-])c6)cc5F)CC4)C3)C[C@@H]2C)cc1 [compound 154, 2-((1H-pyrrolo[2,3-b]pyrid-5-yl)oxy)-5-fluoro-N-((4-(((4-fluorotetrahydro-2H-pyran-4-yl)methyl)amino)-3-nitrophenyl)sulfonyl)-4-(2-((2R,5S)-2-(2-isopropylphenyl)-4-(4-methoxybenzyl)-5-methylpiperazin-1-yl)-7-azaspiro[3.5]non-7-yl)benzamide]
COc1ccc(CN2C[C@@H](c3ccccc3C(C)C)N(C3CC4(CCN(c5cc(Oc6cnc7[nH]ccc7c6)c(C(=O)NS(=O)(=O)c6ccc(NCC7(F)CCOCC7)c([N+](=O)[O-])c6)cc5F)CC4)C3)C[C@H]2C)cc1 [compound 155, 2-((1H-pyrrolo[2,3-b]pyrid-5-yl)oxy)-5-fluoro-N-((4-(((4-fluorotetrahydro-2H-pyran-4-yl)methyl)amino)-3-nitrophenyl)sulfonyl)-4-(2-((2R,5R)-2-(2-isopropylphenyl)-4-(4-methoxybenzyl)-5-methylpiperazin-1-yl)-7-azaspiro[3.5]non-7-yl)benzamide]
CC(C)c1ccccc1[C@@H]1CCCN1C1CC2(CCN(c3cc(Oc4cnc5[nH]ccc5c4)c(C(=O)NS(=O)(=O)c4cc([N+](=O)[O-])c(NCC5CCOCC5)c5c4OCO5)cc3F)CC2)C1 [compound 156, (S)-2-((1H-pyrrolo[2,3-b]pyrid-5-yl)oxy)-5-fluoro-4-(2-(2-(2-isopropylphenyl)pyrrolidin-1-yl)-7-azaspiro[3.5]non-7-yl)-N-((6-nitro-7-(((tetrahydro-2H-pyran-4-yl)methyl)amino)benzo[d][1,3]dioxocyclopent-4-yl)sulfonyl)benzamide]
CC(C)c1ccccc1[C@@H]1CCCN1C1CC2(CCN(c3cc(Oc4cnc5[nH]ccc5c4)c(C(=O)NS(=O)(=O)c4cc([N+](=O)[O-])c(NC[C@H]5COCCO5)c5c4OCO5)cc3F)CC2)C1 [compound 157, N-((7-((((S)-1,4-dioxan-2-yl)methyl)amino)-6-nitrobenzo[d][1,3]dioxocyclopent-4-yl)sulfonyl)-2-((1H-pyrrolo[2,3-b]pyrid-5-yl)oxy)-5-fluoro-4-(2-((S)-2-(2-isopropylphenyl)pyrrolidin-1-yl)-7-azaspiro[3.5]non-7-yl)benzamide]
CC(C)c1ccccc1[C@@H]1CCCN1C1CC2(CCN(c3ccc(C(=O)NS(=O)(=O)c4cc([N+](=O)[O-])c(NC[C@H]5CC[C@](C)(O)CC5)c5c4OCO5)c(Oc4cnc5[nH]ccc5c4)c3)CC2)C1 [compound 158, 2-((1H-pyrrolo[2,3-b]pyrid-5-yl)oxy)-N-((7-((((1r, 4r)-4-hydroxy-4-methylcyclohexyl)methyl)amino)-6-nitrobenzo[d][1,3]dioxocyclopent-4-yl)sulfonyl)-4-(2-((S)-2-(2-isopropylphenyl)pyrrolidin-1-yl)-7-azaspiro[3.5]non-7-yl)benzamide]
CC(C)c1ccccc1[C@@H]1CCCN1C1CC2(CCN(c3ccc(C(=O)NS(=O)(=O)c4cc([N+](=O)[O-])c(NCC5(F)CCOCC5)c5c4OCO5)c(Oc4cnc5[nH]ccc5c4)c3)CC2)C1 [compound 159, (S)-2-((1H-pyrrolo[2,3-b]pyrid-5-yl)oxy)-N-((7-(((4-fluorotetrahydro-2H-pyran-4-yl)methyl)amino)-6-nitrobenzo[d][1,3]dioxocyclopent-4-yl)sulfonyl)-4-(2-(2-(2-isopropylphenyl)pyrrolidin-1-yl)-7-azaspiro[3.5]non-7-yl)benzamide]
CC(C)c1ccccc1[C@@H]1CCCN1C1CC2(CCN(c3ccc(C(=O)NS(=O)(=O)c4cc([N+](=O)[O-])c(NCC5CCOCC5)c5c4OCO5)c(Oc4cnc5[nH]ccc5c4)c3)CC2)C1 [compound 160, (S)-2-((1H-pyrrolo[2,3-b]pyrid-5-yl)oxy)-4-(2-(2-(2-isopropylphenyl)pyrrolidin-1-yl)-7-azaspiro[3.5]non-7-yl)-N-((6-nitro-7-(((tetrahydro-2H-pyran-4-yl)methyl)amino)benzo[d][1,3]dioxocyclopent-4-yl)sulfonyl)benzamide]
CC(C)c1ccccc1[C@@H]1CCCN1C1CC2(CCN(c3ccc(C(=O)NS(=O)(=O)c4cc([N+](=O)[O-])c(NC[C@H]5COCCO5)c5c4OCO5)c(Oc4cnc5[nH]ccc5c4)c3)CC2)C1 [compound 161, N-((7-((((S)-1,4-dioxan-2-yl)methyl)amino)-6-nitrobenzo[d][1,3]dioxocyclopent-4-yl)sulfonyl)-2-((1H-pyrrolo[2,3-b]pyrid-5-yl)oxy)-4-(2-((S)-2-(2-isopropylphenyl)pyrrolidin-1-yl)-7-azaspiro[3.5]non-7-yl)benzamide]
COc1ccc(CN2CCN(C3CC4(CCN(c5ccc(C(=O)NS(=O)(=O)c6cc([N+](=O)[O-])c(NCC7(F)CCOCC7)c7c6OC(C)(C)O7)c(Oc6cnc7[nH]ccc7c6)c5)CC4)C3)[C@H](c3ccccc3C(C)C)C2)cc1 [compound 162, (R)-2-((1H-pyrrolo[2,3-b]pyrid-5-yl)oxy)-N-((7-(((4-fluorotetrahydro-2H-pyran-4-yl)methyl)amino)-2,2-dimethyl-6-nitrobenzo[d][1,3]dioxocyclopent-4-yl)sulfonyl)-4-(2-(2-(2-isopropylphenyl)-4-(4-methoxybenzyl)piperazin-1-yl)-7-azaspiro[3.5]non-7-yl)benzamide]
COc1ccc(CN2CCN(C3CC4(CCN(c5ccc(C(=O)NS(=O)(=O)c6cc([N+](=O)[O-])c(NC[C@H]7CC[C@](C)(O)CC7)c7c6OC(C)(C)O7)c(Oc6cnc7[nH]ccc7c6)c5)CC4)C3)[C@H](c3ccccc3C(C)C)C2)cc1 [compound 163, 2-((1H-pyrrolo[2,3-b]pyrid-5-yl)oxy)-N-((7-((((1r, 4r)-4-hydroxy-4-methylcyclohexyl)methyl)amino)-2,2-dimethyl-6-nitrobenzo[d][1,3]dioxocyclopent-4-yl)sulfonyl)-4-(2-((R)-2-(2-isopropylphenyl)-4-(4-methoxybenzyl)piperazin-1-yl)-7-azaspiro[3.5]non-7-yl)benzamide]
COc1ccc(CN2CCN(C3CC4(CCN(c5ccc(C(=O)NS(=O)(=O)c6cc([N+](=O)[O-])c(NCC7(F)CCOCC7)c7c6OC(F)(F)O7)c(Oc6cnc7[nH]ccc7c6)c5)CC4)C3)[C@H](c3ccccc3C(C)C)C2)cc1 [compound 164, (R)-2-((1H-pyrrolo[2,3-b]pyrid-5-yl)oxy)-N-((2,2-difluoro-7-(((4-fluorotetrahydro-2H-pyran-4-yl)methyl)amino)-6-nitrobenzo[d][1,3]dioxocyclopent-4-yl)sulfonyl)-4-(2-(2-(2-isopropylphenyl)-4-(4-methoxybenzyl)piperazin-1-yl)-7-azaspiro[3.5]non-7-yl)benzamide]
COc1ccc(CN2CCN(C3CC4(CCN(c5ccc(C(=O)NS(=O)(=O)c6cc([N+](=O)[O-])c(NC[C@H]7CC[C@](C)(O)CC7)c7c6OC(F)(F)O7)c(Oc6cnc7[nH]ccc7c6)c5)CC4)C3)[C@H](c3ccccc3C(C)C)C2)cc1 [compound 165, 2-((1H-pyrrolo[2,3-b]pyrid-5-yl)oxy)-N-((2,2-difluoro-7-((((1r, 4r)-4-hydroxy-4-methylcyclohexyl)methyl)amino)-6-nitrobenzo[d][1,3]dioxocyclopent-4-yl)sulfonyl)-4-(2-((R)-2-(2-isopropylphenyl)-4-(4-methoxybenzyl)piperazin-1-yl)-7-azaspiro[3.5]non-7-yl)benzamide]
COc1ccc(CN2CCN(C3CC4(CCN(c5ccc(C(=O)NS(=O)(=O)c6cc([N+](=O)[O-])c(NCC7(F)CCOCC7)c7c6OCO7)c(Oc6cnc7[nH]ccc7c6)c5)CC4)C3)[C@H](c3ccccc3C(C)C)C2)cn1 [compound 166, (R)-2-((1H-pyrrolo[2,3-b]pyrid-5-yl)oxy)-N-((7-(((4-fluorotetrahydro-2H-pyran-4-yl)methyl)amino)-6-nitrobenzo[d][1,3]dioxocyclopent-4-yl)sulfonyl)-4-(2-(2-(2-isopropylphenyl)-4-((6-methoxypyrid-3-yl)methyl)piperazin-1-yl)-7-azaspiro[3.5]non-7-yl)benzamide]
CC(C)c1ccccc1[C@@H]1CN(Cc2ccc(F)cc2)CCN1C1CC2(CCN(c3ccc(C(=O)NS(=O)(=O)c4cc([N+](=O)[O-])c(NCC5(F)CCOCC5)c5c4OCO5)c(Oc4cnc5[nH]ccc5c4)c3)CC2)C1 [compound 167, (R)-2-((1H-pyrrolo[2,3-b]pyrid-5-yl)oxy)-4-(2-(4-(4-fluorobenzyl)-2-(2-isopropylphenyl)piperazin-1-yl)-7-azaspiro[3.5]non-7-yl)-N-((7-(((4-fluorotetrahydro-2H-pyran-4-yl)methyl)amino)-6-nitrobenzo[d][1,3]dioxocyclopent-4-yl)sulfonyl)benzamide]
CC(C)c1ccccc1[C@@H]1CN(Cc2ccc(F)c(F)c2)CCN1C1CC2(CCN(c3ccc(C(=O)NS(=O)(=O)c4cc([N+](=O)[O-])c(NCC5(F)CCOCC5)c5c4OCO5)c(Oc4cnc5[nH]ccc5c4)c3)CC2)C1 [compound 168, (R)-2-((1H-pyrrolo[2,3-b]pyrid-5-yl)oxy)-4-(2-(4-(3,4-difluorobenzyl)-2-(2-isopropylphenyl)piperazin-1-yl)-7-azaspiro[3.5]non-7-yl)-N-((7-(((4-fluorotetrahydro-2H-pyran-4-yl)methyl)amino)-6-nitrobenzo[d][1,3]dioxocyclopent-4-yl)sulfonyl)benzamide]
